In article PMC7093416, “Selective USP7 inhibition elicits cancer cell killing through a p53-dependent mechanism” (Scientific Reports, 2020):

System: panel of 484 cancer cell lines
Assay: PRISM cancer cell line profiling, 5 days
Type: cell-based
Parameters: AUC: unit not given beside the values
Method: Cancer cell line profiling was performed using the Broad’s PRISM platform. Cell treatment and data analysis were performed as described in Yu et al[42]. Raw Luminex signal was converted to AUC values for each cell line as described. The resulting AUC profile for each compound was modeled against DepMap using the limma package in R[71]. Because hotspot mutation analysis was performed against DepMap, TP53 annotations in Fig. 6c,d are directly from DepMap.

For CN1CCN(CCC(=O)Nc2ccc3c(=O)n(CC4(O)CCN(C(=O)[C@H](CCCNC(=O)c5ccc6c(Cl)c7c(nc6c5)CCCC7)Cc5ccccc5)CC4)cnc3c2)CC1 [XL177B], the AUC (MFE319_ENDOMETRIUM) was 1.072, the AUC (MG63_BONE) was 1.289 and the AUC (MHHES1_BONE) was 1.021. For the same molecule, the AUC (MIAPACA2_PANCREAS) was 1.024, the AUC (MKN1_STOMACH) was 1.134 and the AUC (MKN7_STOMACH) was 0.9188. The AUC (MKN45_STOMACH) was 0.937, the AUC (MKN74_STOMACH) was 1.1384 and the AUC (MON_SOFT_TISSUE) was 0.868. The AUC (MPP89_PLEURA) was 1.104, the AUC (MSTO211H_PLEURA) was 1.149 and the AUC (NB1_AUTONOMIC_GANGLIA) was 0.9815. The AUC (NCIH23_LUNG) was 1.159, the AUC (NCIH28_PLEURA) was 1.1 and the AUC (NCIH226_LUNG) was 1. For the same molecule, the AUC (NCIH292_LUNG) was 1.194, the AUC (NCIH322_LUNG) was 1.142 and the AUC (NCIH358_LUNG) was 0.8695. For the same molecule, the AUC (NCIH446_LUNG) was 1.097, the AUC (NCIH460_LUNG) was 1.182 and the AUC (NCIH520_LUNG) was 1.115. The AUC (NCIH522_LUNG) was 1.144, the AUC (NCIH596_LUNG) was 1.0995 and the AUC (NCIH650_LUNG) was 0.9625. For the same molecule, the AUC (NCIH661_LUNG) was 1.097, the AUC (NCIH727_LUNG) was 0.8802 and the AUC (NCIH747_LARGE_INTESTINE) was 1.192. For the same molecule, the AUC (NCIH838_LUNG) was 1.102, the AUC (NCIH841_LUNG) was 0.9191 and the AUC (NCIH1048_LUNG) was 1.221. For the same molecule, the AUC (NCIH1299_LUNG) was 1.132, the AUC (NCIH1339_LUNG) was 1.0827 and the AUC (NCIH1355_LUNG) was 1. It also gave an AUC (NCIH1373_LUNG) of 1, an AUC (NCIH1435_LUNG) of 1.103 and an AUC (NCIH1437_LUNG) of 1.1299. For the same molecule, the AUC (NCIH1563_LUNG) was 1.106, the AUC (NCIH1568_LUNG) was 1.0425 and the AUC (NCIH1573_LUNG) was 1.2267. It also gave an AUC (NCIH1581_LUNG) of 1, an AUC (NCIH1623_LUNG) of 0.9367 and an AUC (NCIH1648_LUNG) of 0.9797. For the same molecule, the AUC (NCIH1650_LUNG) was 1, the AUC (NCIH1651_LUNG) was 1.093 and the AUC (NCIH1693_LUNG) was 0.9899. The AUC (NCIH1703_LUNG) was 1.014, the AUC (NCIH1792_LUNG) was 1.039 and the AUC (NCIH1793_LUNG) was 1.204. The AUC (NCIH1838_LUNG) was 1.05, the AUC (NCIH1915_LUNG) was 1.114 and the AUC (NCIH1944_LUNG) was 1.069. It also gave an AUC (NCIH1975_LUNG) of 0.971, an AUC (NCIH2009_LUNG) of 1.115 and an AUC (NCIH2023_LUNG) of 1.241. The AUC (NCIH2030_LUNG) was 1.104, the AUC (NCIH2052_PLEURA) was 1.077 and the AUC (NCIH2077_LUNG) was 1.134. The AUC (NCIH2087_LUNG) was 1.226, the AUC (NCIH2110_LUNG) was 1.058 and the AUC (NCIH2122_LUNG) was 0.9408. It also gave an AUC (NCIH2126_LUNG) of 1.236, an AUC (NCIH2170_LUNG) of 1.101 and an AUC (NCIH2172_LUNG) of 1.092. It also gave an AUC (NCIH2228_LUNG) of 1.118, an AUC (NCIH2347_LUNG) of 1.188 and an AUC (NCIH2444_LUNG) of 1.192. For the same molecule, the AUC (NCIH2452_PLEURA) was 1.126, the AUC (NCIN87_STOMACH) was 1.49 and the AUC (NUGC3_STOMACH) was 1.06. It also gave an AUC (NUGC4_STOMACH) of 0.9885, an AUC (OAW42_OVARY) of 1.241 and an AUC (OC314_OVARY) of 1.074. For the same molecule, the AUC (OC316_OVARY) was 1.04, the AUC (OE19_OESOPHAGUS) was 1.175 and the AUC (OE21_OESOPHAGUS) was 1.031. The AUC (OE33_OESOPHAGUS) was 1.151, the AUC (ONCODG1_OVARY) was 0.9433 and the AUC (ONS76_CENTRAL_NERVOUS_SYSTEM) was 0.9415. It also gave an AUC (OSRC2_KIDNEY) of 0.9859, an AUC (OUMS23_LARGE_INTESTINE) of 0.9052 and an AUC (OV56_OVARY) of 1.208. For the same molecule, the AUC (OVCAR8_OVARY) was 0.9939, the AUC (OVISE_OVARY) was 0.9359 and the AUC (OVK18_OVARY) was 1.044. The AUC (OVSAHO_OVARY) was 1.01, the AUC (OVTOKO_OVARY) was 1.081 and the AUC (PANC1_PANCREAS) was 0.9949. It also gave an AUC (PANC0203_PANCREAS) of 0.9842, an AUC (PANC0327_PANCREAS) of 1.28 and an AUC (PANC0403_PANCREAS) of 1.185. The AUC (PANC0813_PANCREAS) was 1.0849, the AUC (PANC1005_PANCREAS) was 1.231 and the AUC (PATU8902_PANCREAS) was 1.2352. It also gave an AUC (PATU8988S_PANCREAS) of 1.1933, an AUC (PATU8988T_PANCREAS) of 1.0752 and an AUC (PC3_PROSTATE) of 0.9113. The AUC (PC14_LUNG) was 1.023, the AUC (PECAPJ15_UPPER_AERODIGESTIVE_TRACT) was 0.9342 and the AUC (PECAPJ41CLONED2_UPPER_AERODIGESTIVE_TRACT) was 0.9621. It also gave an AUC (PECAPJ49_UPPER_AERODIGESTIVE_TRACT) of 1.067, an AUC (PK1_PANCREAS) of 1.024 and an AUC (PK45H_PANCREAS) of 1.109. The AUC (PK59_PANCREAS) was 1.206, the AUC (PLCPRF5_LIVER) was 1.091 and the AUC (PSN1_PANCREAS) was 1.221. The AUC (QGP1_PANCREAS) was 0.967, the AUC (RCC10RGB_KIDNEY) was 1.114 and the AUC (RCM1_LARGE_INTESTINE) was 1.243. It also gave an AUC (RD_SOFT_TISSUE) of 1.111, an AUC (RERFLCAD1_LUNG) of 1.059 and an AUC (RERFLCAD2_LUNG) of 1.0662. For the same molecule, the AUC (RERFLCAI_LUNG) was 0.9008, the AUC (RERFLCKJ_LUNG) was 0.9276 and the AUC (RERFLCMS_LUNG) was 1.058. It also gave an AUC (RH30_SOFT_TISSUE) of 1.104, an AUC (RKN_SOFT_TISSUE) of 0.8189 and an AUC (RKO_LARGE_INTESTINE) of 0.9705. It also gave an AUC (RL952_ENDOMETRIUM) of 1.086, an AUC (RMGI_OVARY) of 1.148 and an AUC (RMUGS_OVARY) of 0.9927. It also gave an AUC (RT4_URINARY_TRACT) of 1.661.
